{"source": "paper PMC7206119", "about": "“RIP1 inhibition blocks inflammatory diseases but not tumor growth or metastases” (Cell Death and Differentiation, 2019)", "experiment_in_all_cases": "biochemical", "set-up_in_all_cases": "DiscoverX kinase panel, active-site competition binding (KINOMEscan type), percent of control at one concentration", "settings_in_all_cases": "competition binding, percent of control", "key": {"[1]": {"biological_target": "ACVR1B (Homo sapiens, UniProt P36896)", "sequence (P36896 whole entry)": "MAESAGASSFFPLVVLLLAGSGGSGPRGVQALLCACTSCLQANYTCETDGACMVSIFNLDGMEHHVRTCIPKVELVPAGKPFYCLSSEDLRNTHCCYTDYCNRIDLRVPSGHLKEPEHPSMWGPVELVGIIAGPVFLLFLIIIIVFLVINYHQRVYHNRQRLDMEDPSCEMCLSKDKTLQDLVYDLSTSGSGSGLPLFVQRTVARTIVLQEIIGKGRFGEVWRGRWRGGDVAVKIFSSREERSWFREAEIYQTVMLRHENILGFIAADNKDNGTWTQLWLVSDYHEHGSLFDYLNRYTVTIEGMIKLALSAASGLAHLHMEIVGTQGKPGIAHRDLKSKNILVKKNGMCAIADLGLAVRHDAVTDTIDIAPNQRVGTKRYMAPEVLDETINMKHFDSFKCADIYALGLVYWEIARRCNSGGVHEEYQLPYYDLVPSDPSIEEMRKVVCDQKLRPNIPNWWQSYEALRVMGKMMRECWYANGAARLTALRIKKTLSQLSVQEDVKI"}, "[2]": {"biological_target": "T1, ARK5 (Homo sapiens, UniProt O60285)", "T1 construct": "gene NUAK1"}, "[3]": {"biological_target": "AURKA (Homo sapiens, UniProt O14965)"}, "[4]": {"biological_target": "EGFR(G719S) (Homo sapiens, UniProt P00533, G719S)"}, "[5]": {"biological_target": "EGFR(L747-S752del, P753S) (Homo sapiens, UniProt P00533, DEL747-752/P753S)"}, "[6]": {"biological_target": "EPHA2 (Homo sapiens, UniProt P29317)"}, "[7]": {"biological_target": "FLT4 (Homo sapiens, UniProt P35916)", "sequence (P35916 whole entry)": "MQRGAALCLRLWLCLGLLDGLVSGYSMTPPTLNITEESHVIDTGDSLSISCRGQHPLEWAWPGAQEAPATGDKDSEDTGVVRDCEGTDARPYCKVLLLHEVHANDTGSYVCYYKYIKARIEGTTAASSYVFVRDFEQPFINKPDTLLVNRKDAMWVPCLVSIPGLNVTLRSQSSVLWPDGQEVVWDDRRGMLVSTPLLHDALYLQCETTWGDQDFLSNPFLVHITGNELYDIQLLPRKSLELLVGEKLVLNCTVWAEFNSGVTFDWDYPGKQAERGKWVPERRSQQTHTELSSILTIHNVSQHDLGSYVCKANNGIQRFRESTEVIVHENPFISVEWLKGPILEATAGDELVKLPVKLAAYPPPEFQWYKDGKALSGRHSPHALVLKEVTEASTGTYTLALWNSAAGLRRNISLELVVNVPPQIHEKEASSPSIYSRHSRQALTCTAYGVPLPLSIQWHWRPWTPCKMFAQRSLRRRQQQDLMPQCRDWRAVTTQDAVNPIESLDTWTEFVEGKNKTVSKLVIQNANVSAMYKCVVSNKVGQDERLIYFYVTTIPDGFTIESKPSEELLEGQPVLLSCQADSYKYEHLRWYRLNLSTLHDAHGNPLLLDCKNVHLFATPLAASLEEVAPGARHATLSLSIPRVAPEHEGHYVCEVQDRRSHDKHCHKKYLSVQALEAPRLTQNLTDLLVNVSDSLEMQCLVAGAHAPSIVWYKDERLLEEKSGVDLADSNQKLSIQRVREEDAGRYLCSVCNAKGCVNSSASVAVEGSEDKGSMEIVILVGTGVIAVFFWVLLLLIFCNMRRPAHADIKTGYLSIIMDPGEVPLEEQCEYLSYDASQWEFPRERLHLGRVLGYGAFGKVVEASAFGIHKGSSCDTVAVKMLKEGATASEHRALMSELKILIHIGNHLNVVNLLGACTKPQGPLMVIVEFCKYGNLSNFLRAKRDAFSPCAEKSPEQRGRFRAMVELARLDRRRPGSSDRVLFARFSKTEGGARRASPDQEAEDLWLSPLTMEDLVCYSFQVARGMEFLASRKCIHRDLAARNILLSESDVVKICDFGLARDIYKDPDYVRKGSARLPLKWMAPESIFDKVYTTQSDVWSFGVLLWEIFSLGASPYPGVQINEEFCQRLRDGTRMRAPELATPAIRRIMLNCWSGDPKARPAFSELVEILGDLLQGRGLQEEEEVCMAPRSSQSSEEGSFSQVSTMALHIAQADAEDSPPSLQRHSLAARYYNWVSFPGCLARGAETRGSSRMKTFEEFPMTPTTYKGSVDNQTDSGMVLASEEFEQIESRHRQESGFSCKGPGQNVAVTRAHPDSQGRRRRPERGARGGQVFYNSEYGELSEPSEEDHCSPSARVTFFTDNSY"}, "[8]": {"biological_target": "GAK (Homo sapiens, UniProt O14976)"}, "[9]": {"biological_target": "HASPIN (Homo sapiens, UniProt Q8TF76)"}, "[10]": {"biological_target": "HIPK1 (Homo sapiens, UniProt Q86Z02)"}, "[11]": {"biological_target": "T2, IKK-alpha (Homo sapiens, UniProt O15111)", "T2 construct": "gene CHUK"}, "[12]": {"biological_target": "T3, IKK-epsilon (Homo sapiens, UniProt Q14164)", "T3 construct": "gene IKBKE"}, "[13]": {"biological_target": "KIT(D816V) (Homo sapiens, UniProt P10721, D816V)"}, "[14]": {"biological_target": "LATS2 (Homo sapiens, UniProt Q9NRM7)"}, "[15]": {"biological_target": "T4, LOK (Homo sapiens, UniProt O94804)", "T4 construct": "gene STK10"}, "[16]": {"biological_target": "MAP4K3 (Homo sapiens, UniProt Q8IVH8)"}, "[17]": {"biological_target": "PIK3CA(E545K) (Homo sapiens, UniProt P42336, E545K)", "sequence (P42336 whole entry E545K)": "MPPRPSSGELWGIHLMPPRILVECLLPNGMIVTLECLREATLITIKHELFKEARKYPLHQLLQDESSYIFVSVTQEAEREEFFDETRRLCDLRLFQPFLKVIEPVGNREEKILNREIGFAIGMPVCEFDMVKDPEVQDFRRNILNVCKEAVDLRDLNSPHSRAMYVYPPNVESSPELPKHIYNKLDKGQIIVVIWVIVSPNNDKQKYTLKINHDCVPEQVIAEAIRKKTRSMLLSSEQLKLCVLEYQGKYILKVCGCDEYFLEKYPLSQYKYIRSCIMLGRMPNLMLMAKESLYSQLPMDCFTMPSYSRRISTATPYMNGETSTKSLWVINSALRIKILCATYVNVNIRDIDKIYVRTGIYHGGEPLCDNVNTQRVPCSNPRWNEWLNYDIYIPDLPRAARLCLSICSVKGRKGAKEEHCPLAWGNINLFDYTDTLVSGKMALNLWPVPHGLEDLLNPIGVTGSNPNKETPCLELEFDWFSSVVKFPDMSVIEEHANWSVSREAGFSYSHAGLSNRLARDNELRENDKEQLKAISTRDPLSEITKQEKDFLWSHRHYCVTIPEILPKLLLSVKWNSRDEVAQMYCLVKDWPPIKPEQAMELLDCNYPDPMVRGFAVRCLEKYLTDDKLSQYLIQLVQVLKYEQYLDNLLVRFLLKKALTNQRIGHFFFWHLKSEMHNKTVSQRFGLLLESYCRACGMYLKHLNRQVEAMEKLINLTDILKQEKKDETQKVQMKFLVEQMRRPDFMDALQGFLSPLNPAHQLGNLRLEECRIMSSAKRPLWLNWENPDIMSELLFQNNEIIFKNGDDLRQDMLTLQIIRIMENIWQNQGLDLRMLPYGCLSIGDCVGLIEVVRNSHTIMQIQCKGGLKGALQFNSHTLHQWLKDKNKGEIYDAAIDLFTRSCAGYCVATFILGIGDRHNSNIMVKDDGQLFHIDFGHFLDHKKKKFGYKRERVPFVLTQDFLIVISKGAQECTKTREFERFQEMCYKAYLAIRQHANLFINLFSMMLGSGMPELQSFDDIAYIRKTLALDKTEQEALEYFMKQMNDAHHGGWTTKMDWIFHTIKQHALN"}, "[18]": {"biological_target": "PLK2 (Homo sapiens, UniProt Q9NYY3)"}, "[19]": {"biological_target": "T5, PYK2 (Homo sapiens, UniProt Q14289)", "T5 construct": "gene PTK2B", "T5 sequence (Q14289 whole entry)": "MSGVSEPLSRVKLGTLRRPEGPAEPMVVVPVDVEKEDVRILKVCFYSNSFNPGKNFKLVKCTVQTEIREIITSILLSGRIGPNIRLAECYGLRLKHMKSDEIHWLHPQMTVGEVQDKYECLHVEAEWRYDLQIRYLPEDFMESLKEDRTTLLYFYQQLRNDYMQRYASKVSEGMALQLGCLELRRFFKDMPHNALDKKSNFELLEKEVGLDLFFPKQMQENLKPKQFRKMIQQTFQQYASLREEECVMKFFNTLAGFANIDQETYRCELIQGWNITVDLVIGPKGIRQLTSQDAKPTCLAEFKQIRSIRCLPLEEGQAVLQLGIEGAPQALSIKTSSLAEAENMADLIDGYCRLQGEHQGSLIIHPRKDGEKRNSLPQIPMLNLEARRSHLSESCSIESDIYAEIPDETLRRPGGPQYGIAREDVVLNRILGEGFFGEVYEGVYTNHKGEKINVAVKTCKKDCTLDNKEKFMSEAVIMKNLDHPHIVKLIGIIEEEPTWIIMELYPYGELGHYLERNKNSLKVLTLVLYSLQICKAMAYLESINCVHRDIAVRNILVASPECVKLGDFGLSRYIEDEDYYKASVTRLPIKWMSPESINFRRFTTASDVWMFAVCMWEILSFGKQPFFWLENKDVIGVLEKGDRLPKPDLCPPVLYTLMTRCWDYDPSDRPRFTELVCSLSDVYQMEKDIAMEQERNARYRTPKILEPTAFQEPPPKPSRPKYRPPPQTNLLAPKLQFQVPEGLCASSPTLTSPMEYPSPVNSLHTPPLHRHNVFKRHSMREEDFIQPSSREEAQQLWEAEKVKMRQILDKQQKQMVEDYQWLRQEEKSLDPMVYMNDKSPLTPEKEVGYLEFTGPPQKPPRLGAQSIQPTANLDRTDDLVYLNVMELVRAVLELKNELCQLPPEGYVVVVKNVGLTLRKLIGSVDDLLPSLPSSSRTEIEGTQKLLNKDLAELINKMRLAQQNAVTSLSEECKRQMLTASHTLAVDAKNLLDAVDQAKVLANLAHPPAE"}, "[20]": {"biological_target": "SGK2 (Homo sapiens, UniProt Q9HBY8)", "sequence (Q9HBY8 whole entry)": "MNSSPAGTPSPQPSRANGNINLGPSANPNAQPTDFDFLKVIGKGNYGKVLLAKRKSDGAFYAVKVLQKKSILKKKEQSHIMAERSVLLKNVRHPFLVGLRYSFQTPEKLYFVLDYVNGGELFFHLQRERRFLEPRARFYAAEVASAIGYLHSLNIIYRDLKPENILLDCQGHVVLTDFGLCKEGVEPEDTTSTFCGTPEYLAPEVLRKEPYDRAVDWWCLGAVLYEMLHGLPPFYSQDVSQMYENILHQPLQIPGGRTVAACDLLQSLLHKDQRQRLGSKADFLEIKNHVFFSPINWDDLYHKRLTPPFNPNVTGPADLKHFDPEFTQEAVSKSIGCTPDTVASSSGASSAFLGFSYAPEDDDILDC"}, "[21]": {"biological_target": "STK35 (Homo sapiens, UniProt Q8TDR2)", "sequence (Q8TDR2 whole entry)": "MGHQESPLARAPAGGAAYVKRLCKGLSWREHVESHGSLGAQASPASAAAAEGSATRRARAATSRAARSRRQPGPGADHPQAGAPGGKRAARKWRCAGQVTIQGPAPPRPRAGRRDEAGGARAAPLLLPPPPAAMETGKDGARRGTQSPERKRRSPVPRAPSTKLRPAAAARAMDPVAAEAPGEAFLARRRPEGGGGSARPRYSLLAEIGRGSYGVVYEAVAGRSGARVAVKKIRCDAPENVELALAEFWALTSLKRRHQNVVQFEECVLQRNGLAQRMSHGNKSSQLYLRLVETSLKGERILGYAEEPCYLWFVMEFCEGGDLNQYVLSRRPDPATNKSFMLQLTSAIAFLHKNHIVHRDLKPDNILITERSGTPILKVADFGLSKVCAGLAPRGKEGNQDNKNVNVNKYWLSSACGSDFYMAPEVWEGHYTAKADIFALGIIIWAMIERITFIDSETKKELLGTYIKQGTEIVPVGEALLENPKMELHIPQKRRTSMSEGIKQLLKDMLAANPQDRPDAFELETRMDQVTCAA"}}, "data": [{"smiles": "COc1cc2c(cn1)N(C)C(=O)[C@@H](NC(=O)c1nc3n(n1)[C@H](c1ccccc1)CC3)CC2", "note": "[GNE684, (S)-N-((S)-7-methoxy-1-methyl-2-oxo-2,3,4,5-tetrahydro-1H-pyrido[3,4-b]azepin-3-yl)-5-phenyl-6,7-dihydro-5H-pyrrolo[1,2-b][1,2,4]triazole-2-carboxamide]", "values": [{"measurement": "remaining binding at 10 µM", "setting": "[1]", "result": 93, "unit": "%"}, {"measurement": "remaining binding at 10 µM", "setting": "[2]", "result": 94, "unit": "%"}, {"measurement": "remaining binding at 10 µM", "setting": "[3]", "result": 96, "unit": "%"}, {"measurement": "remaining binding at 10 µM", "setting": "[4]", "result": 100, "unit": "%"}, {"measurement": "remaining binding at 10 µM", "setting": "[5]", "result": 100, "unit": "%"}, {"measurement": "remaining binding at 10 µM", "setting": "[6]", "result": 97, "unit": "%"}, {"measurement": "remaining binding at 10 µM", "setting": "[7]", "result": 96, "unit": "%"}, {"measurement": "remaining binding at 10 µM", "setting": "[8]", "result": 92, "unit": "%"}, {"measurement": "remaining binding at 10 µM", "setting": "[9]", "result": 100, "unit": "%"}, {"measurement": "remaining binding at 10 µM", "setting": "[10]", "result": 82, "unit": "%"}, {"measurement": "remaining binding at 10 µM", "setting": "[11]", "result": 100, "unit": "%"}, {"measurement": "remaining binding at 10 µM", "setting": "[12]", "result": 88, "unit": "%"}, {"measurement": "remaining binding at 10 µM", "setting": "[13]", "result": 100, "unit": "%"}, {"measurement": "remaining binding at 10 µM", "setting": "[14]", "result": 84, "unit": "%"}, {"measurement": "remaining binding at 10 µM", "setting": "[15]", "result": 82, "unit": "%"}, {"measurement": "remaining binding at 10 µM", "setting": "[16]", "result": 99, "unit": "%"}, {"measurement": "remaining binding at 10 µM", "setting": "[17]", "result": 55, "unit": "%"}, {"measurement": "remaining binding at 10 µM", "setting": "[18]", "result": 97, "unit": "%"}, {"measurement": "remaining binding at 10 µM", "setting": "[19]", "result": 92, "unit": "%"}, {"measurement": "remaining binding at 10 µM", "setting": "[20]", "result": 99, "unit": "%"}, {"measurement": "remaining binding at 10 µM", "setting": "[21]", "result": 100, "unit": "%"}]}]}
